Where a name gives a salt, the structure may show the parent alone. One block for each compound: values may come before it. Starred links: 1 amine or outer side, 2 acyl side, 3 side chain; linkers in the order of their positions; H or OH if unused. Positions of bridges follow the written chain, without caps; N, C: chain ends. Non-standard residues stand in square brackets, D forms with d. Residues, ends and D or L forms follow the SMILES beside them. Groups on a side chain read outwards from the residue. No end group written: not given here. *: point of attachment. dTrp(2-Me) = Cc1[nH]c2ccccc2c1C[C@@H](N)C(=O)O; Trp(2-Me) = Cc1[nH]c2ccccc2c1C[C@H](N)C(=O)O; dPhe(4-Cl) = N[C@H](Cc1ccc(Cl)cc1)C(=O)O; d2Nal = N[C@H](Cc1ccc2ccccc2c1)C(=O)O; d(hCit) = NC(=O)NCCCC[C@@H](N)C(=O)O; Lys(iPr) = CC(C)NCCCC[C@H](N)C(=O)O; Ethylenediamine = C(CN[*:2])N[*:1]; Hyp = O=C(O)[C@@H]1C[C@@H](O)CN1; dCit = NC(=O)NCCC[C@@H](N)C(=O)O; d3Pal = N[C@H](Cc1cccnc1)C(=O)O; Phg = N[C@H](C(=O)O)c1ccccc1; CO = O=C([*:1])[*:2]; Bn = c1ccc(C*)cc1
Tests used:
[1] = Stability of reconstituted suspensions at room temperature; format: physicochemical; conditions: reconstituted with water and 0.2 M acetate buffer pH 4.0
Text: (§1) The suspension was freeze-dried overnight. […] These suspensions were stable for at least 3 days at room temperature.

[2] = Physical form (gel or flowing milky microcrystalline suspension) of the peptide salt mixed with aqueous medium or counter-ion acid; format: physicochemical
Procedure: Such behavior is not elicited by other salts such as the acetate, which result in the expected, but unwanted, formation of gels with poor bioavailability in vivo.
(§2) 200 μL of 5% mannitol were added to approximately 15 mg of the LHRH antagonist Teverelix trifluoroacetate. […] The suspension is made of microcrystals of about 10 μm length. Microcrystals may clump together to form urchin like structures. The suspension was injected in rats (1 mg) sub-cutaneously and provided the pharmacodynamic effect of testosterone suppression for more than 45 days (FIG. 1).
200 μL of water were added to approximately 15 mg of the LHRH antagonist Teverelix trifluoroacetate.
200 μL of water were added to approximately 15 mg of the LHRH antagonist Teverelix acetate.
In another study, 100 μL of TFA of various concentrations were added to 7.5 mg of the LHRH antagonist Teverelix acetate, with the TFA/Teverelix molar ratio ranging from 1 to 3.
200 μL of 150 mM TFA were added to amounts of the LHRH antagonist Teverelix acetate ranging from 5 to 30 mg (concentration ranging from 25 to 150 mg/mL).
The suspension was freeze-dried overnight.
as §1
The suspension is made of microcrystals of about […] length. Microcrystals may assemble together to form urchin like structures. The suspension was freeze-dried overnight. […]

[3] = Pharmacokinetic analysis: sustained release of the peptide after injection of the suspension; format: in vivo, rats
Procedure: FIG. 2 is a graph which illustrates the sustained release of the peptide Teverelix for several weeks in rats injected with the suspension of Teverelix trifluoroacetate according to the invention.
as §2

[4] = 100 μL of 150 mM trifluoroacetic acid solution added to 7.5 mg

- stability of the reconstituted suspensions [1]: at least 3 days
- physical form after mixing ([2]; 150 mM TFA (3 mols/mol): 200 μL to approximately 15 mg (Example 6) or 1 mL to approximately 75 mg (Example 7)): flowing milky suspension
- physical form after freeze-drying and reconstitution ([2]; 150 mM TFA suspension freeze-dried overnight, 1 mL of water and 0.2 M acetate buffer pH 4.0 added): flowing milky suspension
- physical form after freeze-drying and reconstitution ([2]; 150 mM TFA suspension freeze-dried overnight, 200 μL of water or 5% mannitol added): flowing milky suspension
- physical form after addition of TFA to the gel ([2]; 20 μL of TFA (3 mols/mol) added to gel of approximately 15 mg in 200 μL water): fluid, flowing milky pearly suspension
- physical form after mixing ([2]; 100 μL of 150 mM trifluoromethane sulfonic acid solution added to 7.5 mg): free flowing milky suspension
- physical form after mixing ([2]; 100 μL of 250 mM H2SO4 added to 7.5 mg (5 mols/mol), after several hours): flowing milky suspension
- TFA/Teverelix molar ratio at which a flowing milky suspension was obtained ([2]; 100 μL of TFA of various concentrations added to 7.5 mg, molar ratio ranging from 1 to 3, gels at other ratios): 1.6
- physical form after mixing ([2]; 200 μL of 75 mM TFA with approximately 15 mg (1.5 mol/mol)): transparent gel
- physical form after mixing ([2]; 200 μL of 100 mM TFA added to approximately 15 mg (2 mols/mol)): flowing milky suspension
- concentration at which a flowing milky suspension was obtained ([2]; 200 μL of 150 mM TFA added to 5 to 30 mg (25 to 150 mg/mL)): up to 100 mg/mL
- physical form after freeze-drying and reconstitution ([2]; H2SO4 suspension freeze-dried overnight, 100 μl of water or 5% mannitol added): flowing milky suspension
- physical form after mixing ([2]; approximately 15 mg in 200 μL of water, vortex one minute): transparent gel
- microcrystal length ([2]; suspension from 100 μL of 250 mM H2SO4 and 7.5 mg): about 100 μm
Compound: Ac-D-Nal-D-pClPhe-D-Pal-Ser-Tyr-D-Hci-Leu-Lys(iPr)-Pro-D-Ala-NH2 [Teverelix acetate]

- physical form of highly concentrated aqueous suspension ([2]; as trifluoroacetate (TFA) or sulfate salt, general statement): microcrystalline milky suspension
- release of the active principle, duration ([3]; highly concentrated aqueous suspension of TFA or sulfate salt injected parenterally, general statement (FIGS. 1 and 2)): several weeks
Compound: Ac-D-Nal-D-pClPhe-D-Pal-Ser-Tyr-D-Hci-Leu-Lys(iPr)-Pro-D-Ala-NH2 [Teverelix]

Compound: [dF]CY[dW]KVC[Trp(2-Me)]-NH2 (disulfide 2-7)
- physical form after mixing [2, 4]: Free flowing suspensions

Compound: [dF]CY[dW]KVCW-NH2 (disulfide 2-7)
- physical form after mixing [2, 4]: Free flowing suspensions

- physical form after mixing ([2]; 100 μL of 5% mannitol-water solution added to approximately 5 mg): milky free flowing suspension
Compound: NCCCC[C@@H]1NC(=O)[C@@H](Cc2c[nH]c3ccccc23)NC(=O)[C@H](c2ccccc2)NC(=O)[C@@H]2C[C@@H](OC(=O)NCCN)CN2C(=O)[C@H](Cc2ccccc2)NC(=O)[C@H](Cc2ccc(OCc3ccccc3)cc2)NC1=O [SOM 230, ETD-carboxy-c[Hyp-Phg-D-Trp-Lys-Tyr(Bzl)-Phe], reference compound] (cyclo([Hyp]([CO-Ethylenediamine])[Phg][dW]KY(Bn)F))

- physical form after mixing ([2]; 100 μL of 200 mM trifluoroacetic acid solution added to 2.5 mg): milky free flowing suspension
Compound: CC(=O)N[C@H](Cc1ccc2ccccc2c1)C(=O)N[C@H](Cc1ccc(Cl)cc1)C(=O)N[C@H](Cc1cccnc1)C(=O)N[C@@H](CO)C(=O)N[C@@H](Cc1ccc(O)cc1)C(=O)N[C@H](CCCNC(N)=O)C(=O)N[C@@H](CC(C)C)C(=O)N[C@@H](CCCNC(=N)N)C(=O)N1CCC[C@H]1C(=O)N[C@H](C)C(N)=O [Cetrorelix acetate, reference compound] (Ac-[d2Nal][dPhe(4-Cl)][d3Pal]SY[dCit]LRP[dA]-NH2)

- sustained release of the peptide, duration ([3]; rats, 1 mg sub-cutaneously, suspension in 5% mannitol): several weeks
Compound: CC(=O)N[C@H](Cc1ccc2ccccc2c1)C(=O)N[C@H](Cc1ccc(Cl)cc1)C(=O)N[C@H](Cc1cccnc1)C(=O)N[C@@H](CO)C(=O)N[C@@H](Cc1ccc(O)cc1)C(=O)N[C@H](CCCCNC(N)=O)C(=O)N[C@@H](CC(C)C)C(=O)N[C@@H](CCCCNC(C)C)C(=O)N1CCC[C@H]1C(=O)N[C@H](C)C(N)=O [Teverelix trifluoroacetate, Ac-D-Nal-D-pClPhe-D-Pal-Ser-Tyr-D-Hci-Leu-Lys(iPr)-Pro-D-Ala-NH2] (Ac-[d2Nal][dPhe(4-Cl)][d3Pal]SY[d(hCit)]L[Lys(iPr)]P[dA]-NH2)

- physical form after mixing ([2]; 100 μL of 150 mM benzenesulfonic acid added to 7.5 mg): free flowing suspension
Compound: Ac-D-Nal-D-pClPhe-D-Pal-Ser-Tyr-D-Hci-Leu-Lys(iPr)-Pro-D-Ala-NH2 [Teverelix hydrochloride]

Compound: D-Nal-c[Cys-Tyr-D-Trp-Lys-Val-Cys]-Trp(2Me)-NH2
- physical form after mixing [2, 4]: Free flowing suspensions

Compound: [dTrp(2-Me)]CF[dW]KTC[Trp(2-Me)]-NH2 (disulfide 2-7)
- physical form after mixing [2, 4]: Free flowing suspensions

Source: patent publication US8415300B2, “Sustained release of microcrystalline peptide suspensions” (Medical Research Council Technology, priority 2001, dated 2013)
